# Assay results from patent US20230028224A1, “Novel Topical Therapy” (priority 2019, published 2023).
# Tests used:
# [1] = injection of the Supratrochlear nerve followed by SPG block; format: in vivo; conditions: bupivacaine 0.5% injected to the Supratrochlear nerve, SPG block subsequently
# From the text: (§1) Another aspect of the invention is the combination of stimulation of SPG with branches of Trigeminal nerves, or occipital nerves. There is known C-2 and 3 connection with Trigeminal nerve and SPG and likely with C1.
# [2] = injection of occipital nerves followed by SPG block; format: in vivo; conditions: 0.5% injected into occipital nerves, then SPG block
# From the text: as §1
compound,measurement,setting,value
CCCCN1CCCCC1C(=O)Nc1c(C)cccc1C (centres unmarked) [bupivacaine],result of subsequent SPG block,[1],better result with SPG block subsequently
same,headache,[2],headache was further decreased with SPG block
